Laboratory results published in ChEMBL document CHEMBL1140674, “Design and synthesis of bioactive adamantane spiro heterocycles” (Bioorg Med Chem Lett, 2007).

What was measured:
Influenza A virus = experiment: Antiviral activity against influenza A/Hong Kong/7/87 (H3N2) in MDCK cells assessed as inhibition of virus-induced cytopathic effect by MTS assay; assay type: functional, organism-based
[1] = Cytotoxicity against MDCK cells assessed as changes in cell morphology; assay type: cell-based, Canis lupus familiaris; conditions: dog
Trypanosoma brucei = experiment: Antiparasitic activity against Trypanosoma brucei 221 blood stream form at pH 7.4; assay type: functional, organism-based

Row | SMILES | EC50 (Influenza A virus; Influenza A virus, H3N2, MDCK) [µM] | MCC [1] [µM] | IC50 (Trypanosoma brucei) [µM] | IC90 (Trypanosoma brucei) [µM] | EC50 (Influenza A virus; mdck) [µM]
1 | C1C2CC3CC1CC(C2)C31CN1 (centres undefined) | > 5 | 25 | > 30 |  | 
2 | CN1CC12C1CC3CC(C1)CC2C3 (centres undefined) | > 4.5 | 23 |  |  | 
3 | C1CC2(N1)C1CC3CC(C1)CC2C3 (centres undefined) | 0.36 | 250 |  |  | 
4 | C1CC2(CCN1)C1CC3CC(C1)CC2C3 |  |  | 5.28 | 9.99 | 
5 | O=C1NC(=O)C2(C(=O)N1)C1CC3CC(C1)CC2C3 |  |  | 20 |  | 
6 | C1C2CC3CC1CC(C2)C31CNC1 | 0.33 | 113 |  |  | 
7 | CN1CCC12C1CC3CC(C1)CC2C3 (centres undefined) | 0.59 | 50 | > 25 |  | 
8 | CN1CCC2(CC1)C1CC3CC(C1)CC2C3 |  |  | > 20 |  | 
9 | CN1CCC2(CC1)C1CC3CC(C1)CC2C3.Cl | 4.3 | 4 |  |  | 
10 | C1CC2(CCN1)C1CC3CC(C1)CC2C3.Cl | 0.16 | 17 |  |  | 
11 | NC12CC3CC(CC(C3)C1)C2 [AMANTADINE] | 1.98 | > 100 | > 130 |  | 
12 | NC(=O)c1ncn([C@@H]2O[C@H](CO)[C@@H](O)[C@H]2O)n1 [RIBAVIRIN] |  | 20 |  |  | 8.68
13 | CC(N)C12CC3CC(CC(C3)C1)C2 (centres undefined) [RIMANTADINE] | 0.362 | > 100 | 7.04 | 14 | 
